Test results: patent publication US9572786B2, “Use of capsiate or dihydrocapsidate” (Catholic University Industry Academy Cooperation Foundation, priority 2007, dated 2017)

Columns and labels:
hairless mouse = test: UV-induced erythema in hairless mouse; type: in vivo; conditions: 200 μL of 1 mM topically, UV 400, 600 and 800 J/m^2, 48 hours later
Experimental: When the skin is exposed to UV, erythema, or […] of the skin, occurs accompanied by edema, prior to a variety of cellular changes including inflammation, apoptosis, carcinogenesis, or the like [Tadashi Terui, Hachiro Tagami, Mediators of inflammation involved in UVB erythema, Journal of Dermatological Science 23 Suppl. 1 (2000) S1S5]. In order to investigate the effect of capsiate on erythema accompanied by UV-induced inflammatory response, experiment was carried out as follows using hairless mouse. Test groups were as follows: non-treated group—treated with acetone only without UV irradiation; test group A—treated with 200 μL of 1 mM capsiate dissolved in acetone without UV irradiation; UV group—treated with acetone and UV; test group B—treated with UV and 200 μL of 1 mM capsiate dissolved in acetone every 24 hours.
Acetone or capsiate diluted in acetone was applied on the back of the mouse of each test group. 1 hour later, a mask was attached on the back of the mouse such that UV could be irradiated only on an area of 1.2 cm×1.2 cm. UV was irradiated at an intensity of 400, 600 and 800 J/m^2. The degree of erythema was measured 48 hours later.

MMP-9 = test: UV-induced MMP-9 mRNA expression, RT-PCR; type: cell-based, human; conditions: HaCaT cells; 10, 25, 50 μM; UV 100 J/m^2; 36 hours
Experimental: The inhibition effect of capsiate on the expression of MMP-2 and MMP-9, which induce angiogenesis, was investigated through measurement of mRNA expression by RT-PCR and protein expression and activity measurement by zymography.
In order to investigate the inhibition effect of capsiate on MMP expression, 5×10^5 HaCaT cells were placed on a 60 mm Petri dish and cultured for 24 hours in DMEM containing 10% FBS. Subsequently, the cells were cultured for 24 hours in DMEM containing 1% FBS until starvation. Then, after treating with capsiate at different concentrations (10 μM, 25 μM, 50 μM) for 30 minutes, followed by washing 3 times with PBS, UV was irradiated at an intensity of 100 J/m^2. Immediately after the UV irradiation, the cells were washed again with PBS and further cultured for 36 hours in DMEM containing 1% FBS, which was treated with capsiate at the same concentration as in the pre-treatment. The degree of intracellular mRNA expression for MMP-2 and MMP-9 was measured by RT-PCR in the same manner as in Example 3. The degree of MMP expression was compared with that of the non-treated group.

NF-κB = test: UV-induced NF-κB activation, immunohistochemical staining; type: cell-based, human; conditions: HaCaT cells; 25 μM; UV 100 J/m^2; 4 hours
Experimental: In order to investigate whether the transcription factor NF-κB is activated, the human keratinocyte cell line HaCaT cells were stained by immunohistochemical staining as follows.
The cells were placed on a 14 mm culture slide and cultured for 24 hours in DMEM containing 10% FBS. Subsequently, the cells were cultured for 24 hours in DMEM containing 1% FBS until starvation. Then, after treating with 25 μM capsiate for 30 minutes, followed by washing 3 times with PBS, UV was irradiated at an intensity of 100 J/m^2. Immediately after the UV irradiation, the cells were washed again with PBS and further cultured for 4 hours in DMEM containing 1% FBS, which was treated with capsiate at the same concentration as in the pre-treatment. The cells were fixed for 5 minutes using methanol for immunohistochemical staining.
The fixed cells were blocked using 10% normal goat serum and washed 3 times with PBS. After fluorescence staining NF-κB using rabbit anti-NF-κB antibody (Santa Cruz, USA) and Alexa 488-labeled anti-rabbit IgG secondary antibody (Invitrogen, USA), counter staining was carried out using Hoechst (Sigma, St. Louis, Mo.).

P38 = test: MAPK signaling in mouse skin tissue, Western blotting: P38; type: in vivo; conditions: hairless mouse; UV+CPT vs UV with acetone only
Experimental: (§1) In order to investigate the intracellular mechanism (signaling) related with the inhibition of COX-2 expression by capsiate, Western blotting was carried out for MAPK signaling-related proteins (ERK, p-ERK, p38, p-p38 and JNK, p-JNK) as in Example 2-2, using proteins isolated from the mouse skin tissue.

ERK = test: MAPK signaling in mouse skin tissue, Western blotting: ERK; type: in vivo; conditions: hairless mouse; UV+CPT vs UV with acetone only
Experimental: as §1

COX-2 = test: UV-induced COX-2 expression, Western blotting; type: cell-based, human; conditions: HaCaT cells; 10, 25, 50 μM; UV 100 J/m^2; 16 hours
Experimental: In order to investigate the effect of capsiate on UV-induced COX-2 expression in human keratinocytes, 5×10^5 HaCaT cells were placed on a 60 mm Petri dish and cultured for 24 hours in DMEM containing 10% FBS.
Subsequently, the cells were cultured for 24 hours in DMEM containing 1% FBS until starvation. Then, after treating with capsiate for 30 minutes at different concentrations (10 μM, 25 μM, 50 μM), followed by washing 3 times with PBS, UV was irradiated at an intensity of 100 J/m^2 in order to induce the expression of COX-2. Immediately after the UV irradiation, the cells were washed again with PBS and further cultured for 16 hours in DMEM containing 1% FBS, which was treated with capsiate at the same concentration as in the pre-treatment.
Western blotting was carried out as follows in order to evaluate the degree of COX-2 expression in the cells. […]
In order to investigate the effect of dihydrocapsiate on UV-induced COX-2 expression in human keratinocytes, the degree of COX-2 expression was evaluated in the same manner as Example 2-1, except for using dihydrocapsiate instead of capsiate.

JNK = test: MAPK signaling in mouse skin tissue, Western blotting: JNK; type: in vivo; conditions: hairless mouse; UV+CPT vs UV with acetone only
Experimental: as §1

aortic ring = test: Sprouting from the aortic ring; type: cell-based, Sprague Dawley rat; conditions: rat aortic ring in Matrigel; 6 days; evaluation 0 to 5 points
Experimental: The degree of sprouting from the aortic ring caused by treatment with VEGF was investigated as follows in order to identify the effect of capsiate or dihydrocapsiate on VEGF-induced angiogenesis.
The aortic ring was prepared from the artery of Sprague Dawley rat (6-8 weeks old). The aortic ring was placed on a 48-well plate coated with 120 μL of Matrigel and 50 μL of Matrigel was further added. Then, 200 μL of a medium (human endothelial serum-free medium, Invitrogen, USA) containing capsiate or dihydrocapsiate and VEGF or a medium containing only VEGF was added. 6 days later, the cells were fixed, stained using Diff-Quick and subjected to evaluation (0 to 5 points) in a double blinded manner.

Row | SMILES | degree of erythema (hairless mouse) | UV-induced mRNA expression of MMP-9 (MMP-9) | UV-induced migration of NF-κB into the nuclei (NF-κB) | P38 (phosphorylation) in mouse skin tissue (P38) | ERK phosphorylation in mouse skin tissue (ERK) | UV-induced COX-2 expression (COX-2) | JNK (phosphorylation) in mouse skin tissue (JNK) | VEGF-promoted sprouting from the aortic ring (aortic ring)
1 | COc1cc(COC(=O)CCCC/C=C/C(C)C)ccc1O [capsiate] | weaker | decreased | inhibits | no significant difference | suppressed phosphorylation | decreased in a concentration-dependent manner | no significant difference | inhibited the sprouting in a concentration-dependent manner
2 | COc1cc(COC(=O)CCCCCCC(C)C)ccc1O [dihydrocapsiate] | – | – | – | – | – | decrease of the increased COX-2 expression in a concentration-dependent manner | – | inhibited the sprouting in a concentration-dependent manner
